Results taken from ChEMBL document CHEMBL4800721, “Data for DCP probe A-446” (2021).
“And” between values parts separate entries of the source, which are not always exact repeats. Equal entries are not always repeated. The source made the active and inactive calls. The calls are words filed in the database; no cut-off is given here.

Legend:
[1] = target: Glutaminase liver isoform, mitochondrial (Homo sapiens, UniProt Q9UI32); assay: GLS2 Enzyme activity assay
[2] = target: Glutaminase kidney isoform, mitochondrial (Homo sapiens, UniProt O94925); assay: GLS Enzyme activity assay
[3] = target: 5-hydroxytryptamine receptor 1B (Homo sapiens) (UniProt P28222); settings: Compound concentration 10.0 uM
[4] = target: Muscarinic acetylcholine receptor M5 (Homo sapiens) (UniProt P08912); settings: Compound concentration 10.0 uM
[5] = target: Delta-type opioid receptor (Homo sapiens) (UniProt P41143); settings: Compound concentration 10.0 uM
A549 = assay: A549 CTG Assay; type: cell-based; settings: Homo sapiens
[6] = target: 5-hydroxytryptamine receptor 1A (Homo sapiens) (UniProt P08908); settings: Compound concentration 10.0 uM
[7] = target: 5-hydroxytryptamine receptor 6 (Homo sapiens) (UniProt P50406); settings: Compound concentration 10.0 uM
[8] = target: Histamine H1 receptor (Homo sapiens) (UniProt P35367); settings: Compound concentration 10.0 uM
[9] = target: Muscarinic acetylcholine receptor M1 (Homo sapiens) (UniProt P11229); settings: Compound concentration 10.0 uM
[10] = target: Sigma non-opioid intracellular receptor 1 (Homo sapiens) (UniProt Q99720); settings: Compound concentration 10.0 uM
[11] = target: T1, 5-hydroxytryptamine receptor 1D (Homo sapiens, UniProt P28221); assay: GPCRScan assay: inhibition of 5-HT1D; design: radioligand conc. used [nm] 1.0 – 2.0, parental cells HEKT
[12] = target: Sigma intracellular receptor 2 (Homo sapiens) (UniProt Q5BJF2); settings: Compound concentration 10.0 uM
[13] = target: 5-hydroxytryptamine receptor 2B (Homo sapiens) (UniProt P41595); settings: Compound concentration 10.0 uM
[14] = target: Alpha-2B adrenergic receptor (Homo sapiens) (UniProt P18089); settings: Compound concentration 10.0 uM
[15] = target: Alpha-2A adrenergic receptor (Homo sapiens) (UniProt P08913); settings: Compound concentration 10.0 uM
[16] = target: T1, 5-hydroxytryptamine receptor 1D; settings: Compound concentration 10.0 uM
[17] = GPCRScan assay: inhibition of GABA/PBR; design: species or system Rattus norvegicus; radioligand conc. used [nm] 0.3 – 2.0, parental cells brain tissue
[18] = target: Histamine H4 receptor (Homo sapiens) (UniProt Q9H3N8); settings: Compound concentration 10.0 uM
[19] = target: 5-hydroxytryptamine receptor 5A (Homo sapiens) (UniProt P47898); settings: Compound concentration 10.0 uM
[20] = target: Muscarinic acetylcholine receptor M3 (Homo sapiens) (UniProt P20309); settings: Compound concentration 10.0 uM
[21] = target: 5-hydroxytryptamine receptor 2A (Homo sapiens) (UniProt P28223); settings: Compound concentration 10.0 uM
[22] = target: 5-hydroxytryptamine receptor 7 (Homo sapiens, UniProt P34969); assay: GPCRScan assay: inhibition of 5-HT7A; design: radioligand conc. used [nm] 5.0 – 6.0, parental cells Stable HEK
[23] = target: Beta-1 adrenergic receptor (Homo sapiens) (UniProt P08588); settings: Compound concentration 10.0 uM
[24] = target: Mu-type opioid receptor (Homo sapiens) (UniProt P35372); settings: Compound concentration 10.0 uM
[25] = target: Sodium-dependent dopamine transporter (Homo sapiens) (UniProt Q01959); settings: Compound concentration 10.0 uM
[26] = target: Muscarinic acetylcholine receptor M4 (Homo sapiens) (UniProt P08173); settings: Compound concentration 10.0 uM
[27] = target: Beta-2 adrenergic receptor (Homo sapiens) (UniProt P07550); settings: Compound concentration 10.0 uM
[28] = target: D(3) dopamine receptor (Homo sapiens) (UniProt P35462); settings: Compound concentration 10.0 uM
[29] = target: 5-hydroxytryptamine receptor 1E (Homo sapiens) (UniProt P28566); settings: Compound concentration 10.0 uM
[30] = target: Histamine H2 receptor (Homo sapiens) (UniProt P25021); settings: Compound concentration 10.0 uM
[31] = target: Kappa-type opioid receptor (Homo sapiens) (UniProt P41145); settings: Compound concentration 10.0 uM
[32] = target: Alpha-2C adrenergic receptor (Homo sapiens) (UniProt P18825); settings: Compound concentration 10.0 uM
[33] = target: 5-hydroxytryptamine receptor 3A (Homo sapiens) (UniProt P46098); settings: Compound concentration 10.0 uM
[34] = target: D(4) dopamine receptor (Homo sapiens) (UniProt P21917); settings: Compound concentration 10.0 uM

T1 sequence (P28221 whole entry): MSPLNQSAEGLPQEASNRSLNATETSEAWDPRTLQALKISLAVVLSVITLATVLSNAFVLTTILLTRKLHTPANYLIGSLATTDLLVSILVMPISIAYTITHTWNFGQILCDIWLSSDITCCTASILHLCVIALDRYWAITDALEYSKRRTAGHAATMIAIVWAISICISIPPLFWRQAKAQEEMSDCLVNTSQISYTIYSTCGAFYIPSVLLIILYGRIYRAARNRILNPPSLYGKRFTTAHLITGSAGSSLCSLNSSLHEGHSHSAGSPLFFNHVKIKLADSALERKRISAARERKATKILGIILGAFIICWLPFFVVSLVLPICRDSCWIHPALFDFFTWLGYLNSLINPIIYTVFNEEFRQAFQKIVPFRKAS
Sequence of Glutaminase liver isoform, mitochondrial (Q9UI32 whole entry, canonical isoform): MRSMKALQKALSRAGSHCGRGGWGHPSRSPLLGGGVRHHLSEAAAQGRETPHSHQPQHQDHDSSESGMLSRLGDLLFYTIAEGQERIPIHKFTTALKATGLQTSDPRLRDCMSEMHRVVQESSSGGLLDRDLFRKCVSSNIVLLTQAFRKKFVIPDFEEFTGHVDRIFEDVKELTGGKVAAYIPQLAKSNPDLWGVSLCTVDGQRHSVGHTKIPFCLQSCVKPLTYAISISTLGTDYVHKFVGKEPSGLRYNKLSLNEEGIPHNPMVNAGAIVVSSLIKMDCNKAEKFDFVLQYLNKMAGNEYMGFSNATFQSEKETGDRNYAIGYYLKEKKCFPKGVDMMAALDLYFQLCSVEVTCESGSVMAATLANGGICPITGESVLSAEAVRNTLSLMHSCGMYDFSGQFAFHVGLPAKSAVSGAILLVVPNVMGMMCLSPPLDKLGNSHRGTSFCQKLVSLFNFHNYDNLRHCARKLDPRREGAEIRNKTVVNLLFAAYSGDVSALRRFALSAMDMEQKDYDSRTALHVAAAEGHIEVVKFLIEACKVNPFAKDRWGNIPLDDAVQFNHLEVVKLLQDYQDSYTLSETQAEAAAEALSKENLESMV
Sequence of 5-hydroxytryptamine receptor 7 (P34969 whole entry): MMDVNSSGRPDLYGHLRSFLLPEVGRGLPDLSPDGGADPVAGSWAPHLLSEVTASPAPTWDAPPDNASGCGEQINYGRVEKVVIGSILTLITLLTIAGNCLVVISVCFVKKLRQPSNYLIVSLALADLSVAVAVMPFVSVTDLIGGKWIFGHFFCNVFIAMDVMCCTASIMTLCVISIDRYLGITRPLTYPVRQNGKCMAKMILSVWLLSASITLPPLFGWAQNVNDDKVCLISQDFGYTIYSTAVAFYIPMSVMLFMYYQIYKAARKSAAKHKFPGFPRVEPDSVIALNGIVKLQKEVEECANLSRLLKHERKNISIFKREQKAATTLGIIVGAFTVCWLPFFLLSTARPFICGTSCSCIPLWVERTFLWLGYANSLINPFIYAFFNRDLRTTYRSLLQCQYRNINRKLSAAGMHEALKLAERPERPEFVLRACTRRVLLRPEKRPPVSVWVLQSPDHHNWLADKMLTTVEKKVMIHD
Sequence of Glutaminase kidney isoform, mitochondrial (O94925 whole entry, canonical isoform): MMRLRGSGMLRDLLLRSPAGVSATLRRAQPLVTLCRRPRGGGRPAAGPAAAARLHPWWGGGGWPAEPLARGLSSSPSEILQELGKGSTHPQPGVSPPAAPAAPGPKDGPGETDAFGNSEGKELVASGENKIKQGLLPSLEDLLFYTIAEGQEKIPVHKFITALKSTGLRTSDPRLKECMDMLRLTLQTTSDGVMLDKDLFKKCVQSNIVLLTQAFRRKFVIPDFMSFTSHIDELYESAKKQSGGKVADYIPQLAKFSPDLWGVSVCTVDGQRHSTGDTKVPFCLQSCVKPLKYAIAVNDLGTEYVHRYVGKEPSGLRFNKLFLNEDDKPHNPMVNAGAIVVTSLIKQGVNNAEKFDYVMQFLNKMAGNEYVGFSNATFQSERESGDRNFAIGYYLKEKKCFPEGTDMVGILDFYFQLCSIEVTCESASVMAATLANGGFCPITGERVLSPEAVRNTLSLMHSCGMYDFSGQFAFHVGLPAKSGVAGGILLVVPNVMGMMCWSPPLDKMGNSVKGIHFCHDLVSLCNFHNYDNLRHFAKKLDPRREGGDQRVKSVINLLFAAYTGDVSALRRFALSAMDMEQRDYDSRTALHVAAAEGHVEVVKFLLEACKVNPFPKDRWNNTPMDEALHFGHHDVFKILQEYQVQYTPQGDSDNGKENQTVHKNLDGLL
Sequence of 5-hydroxytryptamine receptor 1B (Homo sapiens) (P28222 whole entry): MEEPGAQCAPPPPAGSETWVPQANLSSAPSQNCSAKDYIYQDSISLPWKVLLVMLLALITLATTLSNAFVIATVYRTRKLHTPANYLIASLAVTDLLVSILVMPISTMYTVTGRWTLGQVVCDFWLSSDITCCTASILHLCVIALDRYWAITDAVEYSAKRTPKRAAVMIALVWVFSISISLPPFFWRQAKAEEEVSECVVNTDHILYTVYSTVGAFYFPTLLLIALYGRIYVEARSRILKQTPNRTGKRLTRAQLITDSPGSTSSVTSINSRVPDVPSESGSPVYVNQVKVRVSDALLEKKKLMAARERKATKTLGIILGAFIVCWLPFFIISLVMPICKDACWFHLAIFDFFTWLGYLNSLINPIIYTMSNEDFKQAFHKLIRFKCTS
Sequence of 5-hydroxytryptamine receptor 3A (Homo sapiens) (P46098 whole entry): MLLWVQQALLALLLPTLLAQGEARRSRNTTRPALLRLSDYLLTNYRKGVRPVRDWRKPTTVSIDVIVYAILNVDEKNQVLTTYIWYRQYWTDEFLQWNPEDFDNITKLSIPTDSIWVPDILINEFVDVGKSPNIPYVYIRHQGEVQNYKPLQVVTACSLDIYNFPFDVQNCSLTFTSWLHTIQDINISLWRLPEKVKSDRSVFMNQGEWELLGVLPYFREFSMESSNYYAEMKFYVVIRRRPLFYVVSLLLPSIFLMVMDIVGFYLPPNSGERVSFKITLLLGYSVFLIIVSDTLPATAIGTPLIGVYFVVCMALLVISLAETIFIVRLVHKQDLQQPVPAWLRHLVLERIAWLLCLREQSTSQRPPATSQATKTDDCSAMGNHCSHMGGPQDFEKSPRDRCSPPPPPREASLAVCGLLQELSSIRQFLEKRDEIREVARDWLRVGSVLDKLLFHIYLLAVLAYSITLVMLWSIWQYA
Sequence of 5-hydroxytryptamine receptor 1A (Homo sapiens) (P08908 whole entry): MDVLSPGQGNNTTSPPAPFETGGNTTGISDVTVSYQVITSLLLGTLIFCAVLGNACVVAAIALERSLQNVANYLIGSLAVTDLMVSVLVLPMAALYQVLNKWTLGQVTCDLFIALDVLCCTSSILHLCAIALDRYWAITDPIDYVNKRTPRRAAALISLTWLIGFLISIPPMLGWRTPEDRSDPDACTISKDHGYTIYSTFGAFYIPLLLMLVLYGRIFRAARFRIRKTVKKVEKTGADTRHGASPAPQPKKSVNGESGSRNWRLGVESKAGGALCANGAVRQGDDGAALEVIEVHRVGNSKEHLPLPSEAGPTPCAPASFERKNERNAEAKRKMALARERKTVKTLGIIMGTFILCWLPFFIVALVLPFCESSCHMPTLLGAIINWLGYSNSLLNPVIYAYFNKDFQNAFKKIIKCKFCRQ
Sequence of Mu-type opioid receptor (Homo sapiens) (P35372 whole entry): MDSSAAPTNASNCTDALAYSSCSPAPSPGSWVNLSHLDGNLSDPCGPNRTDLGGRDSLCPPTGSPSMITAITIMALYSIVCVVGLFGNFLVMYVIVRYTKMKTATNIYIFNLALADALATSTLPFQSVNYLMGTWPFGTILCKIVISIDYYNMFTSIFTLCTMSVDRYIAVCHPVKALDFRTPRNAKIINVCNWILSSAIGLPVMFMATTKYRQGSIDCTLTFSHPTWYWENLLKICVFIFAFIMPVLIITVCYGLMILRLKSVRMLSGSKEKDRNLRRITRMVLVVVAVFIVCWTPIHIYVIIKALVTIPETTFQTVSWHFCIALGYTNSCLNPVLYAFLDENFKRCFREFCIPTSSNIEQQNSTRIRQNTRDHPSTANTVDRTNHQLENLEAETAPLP
Sequence of Alpha-2B adrenergic receptor (Homo sapiens) (P18089 whole entry): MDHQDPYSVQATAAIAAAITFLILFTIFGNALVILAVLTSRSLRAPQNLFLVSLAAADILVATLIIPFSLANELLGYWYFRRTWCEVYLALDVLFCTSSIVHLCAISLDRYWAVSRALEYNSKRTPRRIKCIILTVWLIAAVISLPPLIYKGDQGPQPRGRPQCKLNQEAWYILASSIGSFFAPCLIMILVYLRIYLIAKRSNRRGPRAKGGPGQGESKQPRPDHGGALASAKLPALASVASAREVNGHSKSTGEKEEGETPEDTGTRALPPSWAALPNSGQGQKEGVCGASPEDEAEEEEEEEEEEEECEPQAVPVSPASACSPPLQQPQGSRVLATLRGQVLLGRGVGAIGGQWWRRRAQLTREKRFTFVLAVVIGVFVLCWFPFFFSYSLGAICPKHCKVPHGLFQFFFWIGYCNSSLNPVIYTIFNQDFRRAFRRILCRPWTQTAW
Sequence of Beta-2 adrenergic receptor (Homo sapiens) (P07550 whole entry, looked up): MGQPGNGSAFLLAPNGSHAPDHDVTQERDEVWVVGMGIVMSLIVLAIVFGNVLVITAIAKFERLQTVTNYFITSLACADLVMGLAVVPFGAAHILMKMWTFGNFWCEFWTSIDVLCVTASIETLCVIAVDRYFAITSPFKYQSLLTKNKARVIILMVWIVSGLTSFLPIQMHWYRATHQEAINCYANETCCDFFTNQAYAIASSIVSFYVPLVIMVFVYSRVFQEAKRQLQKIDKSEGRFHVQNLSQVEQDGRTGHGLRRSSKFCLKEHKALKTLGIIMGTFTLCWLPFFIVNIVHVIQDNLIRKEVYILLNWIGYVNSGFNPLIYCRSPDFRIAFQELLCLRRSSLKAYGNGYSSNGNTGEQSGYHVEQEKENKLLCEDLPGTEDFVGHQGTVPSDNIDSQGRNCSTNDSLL
Sequence of Sigma non-opioid intracellular receptor 1 (Homo sapiens) (Q99720 whole entry): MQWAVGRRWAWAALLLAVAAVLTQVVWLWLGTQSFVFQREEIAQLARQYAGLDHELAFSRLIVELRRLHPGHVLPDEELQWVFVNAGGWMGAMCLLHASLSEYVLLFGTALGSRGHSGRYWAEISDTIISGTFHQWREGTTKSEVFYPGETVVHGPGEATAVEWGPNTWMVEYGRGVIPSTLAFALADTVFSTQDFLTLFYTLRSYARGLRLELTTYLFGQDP

O=C(Cc1ccccc1)Nc1nnc(N2CC[C@@H]3[C@H]2CN3c2cccnn2)s1 [A-426]
IC50 [1]: > 30 µM (not active) | IC50 [2]: > 30 µM (not active)

O=C(Cc1ccccc1)Nc1nnc(N2C[C@H]3C[C@@H]2CN3c2cccnn2)s1 [A-446]
inhibition [3]: 11.2% | inhibition [4]: 15% | inhibition [5]: -2.96% | IC50 (A549): 0.0105 µM (active) | inhibition [6]: 1.9% | inhibition [7]: -4.23% | inhibition [8]: 21.3% | inhibition [9]: 14.6% | IC50 [1]: > 30 µM (not active) | inhibition [10]: 9.03% | Ki ([11]; read-out: Ki): > 10 µM and 6.45 µM | Ki ([11]; read-out: pKi (converted)): > 10 µM | inhibition [12]: 6.42% | inhibition [13]: 1.83% | inhibition [14]: -6.1% | inhibition [15]: 12.2% | inhibition [16]: 55.1% | Ki [17]: > 10 µM | pKi [17]: < 5 | inhibition [18]: 18.3% | inhibition [19]: 4.08% | inhibition [20]: 9.66% | IC50 [2]: 0.031 µM (active) | inhibition [21]: -2.63% | Ki [22]: > 10 µM | pKi [22]: < 5 | inhibition [23]: 1.03% | inhibition [24]: -3.29% | inhibition [25]: 33.5% | inhibition [26]: -9.24% | inhibition [27]: -8.05% | inhibition [28]: -3.72% | inhibition [29]: -1.42% | inhibition [30]: -5.22% | inhibition [31]: 2.85% | inhibition [32]: 13.9% | inhibition [33]: 1.72% | inhibition [34]: -7.36%
